# ChEMBL document CHEMBL1201862, “PubChem BioAssay data set” (2004)
#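 Interpolation was linear, between the two tested concentrations surrounding the appropriate level; five concentrations were tested over 48 hours in 96-well plates. GI50 = concentration required for 50% inhibition of growth.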 Activity calls are given as the source filed them. No stated cut-off is given here; in the data, active = GI50 up to about 1.1 µM and inactive = higher.
# Columns and labels:
# Experiment in all cases: NCI tumour cell line growth inhibition, 48 h
# OVCAR-5 = tested on: OVCAR-5
# TK-10 = tested on: TK-10
# SNB-19 = tested on: SNB-19
# OVCAR-4 = tested on: OVCAR-4
# SK-OV-3 = tested on: SK-OV-3
# RXF 393 = tested on: RXF 393
# SF-539 = tested on: SF-539
# HOP-92 = tested on: HOP-92
# SF-295 = tested on: SF-295
# SK-MEL-28 = tested on: SK-MEL-28
# HOP-62 = tested on: HOP-62
# CAKI-1 = tested on: CAKI-1
# OVCAR-8 = tested on: OVCAR-8
# M14 = tested on: M14
# KM12 = tested on: KM12
# SF-268 = tested on: SF-268
# NCI-H460 = tested on: NCI-H460
# HCC 2998 = tested on: HCC 2998
# EKVX = tested on: EKVX
# NCI-H226 = tested on: NCI-H226
# COLO 205 = tested on: COLO 205
# ACHN = tested on: ACHN
# UO-31 = tested on: UO-31
# SNB-75 = tested on: SNB-75
# UACC-62 = tested on: UACC-62
# A498 = tested on: A498
# DU-145 = tested on: DU-145
# PC-3 = tested on: PC-3
# OVCAR-3 = tested on: OVCAR-3
# U-251 = tested on: U-251
# SW-620 = tested on: SW-620
# HT-29 = tested on: HT-29
# A549 = tested on: A549
# BT-549 = tested on: BT-549
# Malme-3M = tested on: Malme-3M
# RPMI-8226 = tested on: RPMI-8226
# SK-MEL-2 = tested on: SK-MEL-2
# NCI/ADR-RES = tested on: NCI/ADR-RES
# MOLT-4 = tested on: MOLT-4
# NCI-H23 = tested on: NCI-H23
# MDA-MB-231 = tested on: MDA-MB-231
# HCT-15 = tested on: HCT-15
# 786-0 = tested on: 786-0
# Hs-578T = tested on: Hs-578T
# MCF7 = tested on: MCF7
# MDA-MB-435 = tested on: MDA-MB-435
# CCRF-CEM = tested on: CCRF-CEM
# SK-MEL-5 = tested on: SK-MEL-5
# K562 = tested on: K562
# SN12C = tested on: SN12C
# T47D = tested on: T47D
# HL-60 = tested on: HL-60
# MDA-N = tested on: MDA-N
# IGROV-1 = tested on: IGROV-1
# NCI-H522 = tested on: NCI-H522
# HCT-116 = tested on: HCT-116
# SR = tested on: SR
# UACC-257 = tested on: UACC-257
# LOX IMVI = tested on: LOX IMVI
smiles,measurement,setting,value
Cn1nc(S(N)(=O)=O)s/c1=N/S(=O)(=O)c1ccc(N)cc1,GI50,OVCAR-5,> 100 µM (inactive)
same,GI50,TK-10,> 100 µM (inactive)
same,GI50,SNB-19,> 100 µM (inactive)
same,GI50,OVCAR-4,> 100 µM (inactive)
same,GI50,SK-OV-3,> 100 µM (inactive)
same,GI50,RXF 393,> 100 µM (inactive)
same,GI50,SF-539,> 100 µM (inactive)
same,GI50,HOP-92,> 100 µM (inactive)
same,GI50,SF-295,> 100 µM (inactive)
same,GI50,SK-MEL-28,> 100 µM (inactive)
same,GI50,HOP-62,> 100 µM (inactive)
same,GI50,CAKI-1,> 100 µM (inactive)
same,GI50,OVCAR-8,> 100 µM (inactive)
same,GI50,M14,> 100 µM (inactive)
same,GI50,KM12,> 100 µM (inactive)
same,GI50,SF-268,> 100 µM (inactive)
same,GI50,NCI-H460,> 100 µM (inactive)
same,GI50,HCC 2998,> 100 µM (inactive)
same,GI50,EKVX,> 100 µM (inactive)
same,GI50,NCI-H226,> 100 µM (inactive)
same,GI50,COLO 205,> 100 µM (inactive)
same,GI50,ACHN,> 100 µM (inactive)
same,GI50,UO-31,> 100 µM (inactive)
same,GI50,SNB-75,> 100 µM (inactive)
same,GI50,UACC-62,> 100 µM (inactive)
same,GI50,A498,> 100 µM (inactive)
same,GI50,DU-145,> 100 µM (inactive)
same,GI50,PC-3,> 100 µM (inactive)
same,GI50,OVCAR-3,> 100 µM (inactive)
same,GI50,U-251,> 100 µM (inactive)
same,GI50,SW-620,> 100 µM (inactive)
same,GI50,HT-29,> 100 µM (inactive)
same,GI50,A549,> 100 µM (inactive)
same,GI50,BT-549,> 100 µM (inactive)
same,GI50,Malme-3M,> 100 µM (inactive)
same,GI50,RPMI-8226,> 100 µM (inactive)
same,GI50,SK-MEL-2,> 100 µM (inactive)
same,GI50,NCI/ADR-RES,> 100 µM (inactive)
same,GI50,MOLT-4,> 100 µM (inactive)
same,GI50,NCI-H23,> 100 µM (inactive)
same,GI50,MDA-MB-231,> 100 µM (inactive)
same,GI50,HCT-15,> 100 µM
same,GI50,786-0,> 100 µM (inactive)
CC(C)(C)c1cc[n+](C[n+]2ccc(C(C)(C)C)cc2)cc1,GI50,OVCAR-5,> 100 µM (inactive)
same,GI50,TK-10,> 100 µM (inactive)
same,GI50,SNB-19,> 100 µM (inactive)
same,GI50,OVCAR-4,> 100 µM (inactive)
same,GI50,SK-OV-3,> 100 µM (inactive)
same,GI50,RXF 393,> 100 µM (inactive)
same,GI50,SF-539,> 100 µM (inactive)
same,GI50,HOP-92,> 100 µM (inactive)
same,GI50,Hs-578T,> 100 µM (inactive)
same,GI50,SF-295,> 100 µM (inactive)
same,GI50,SK-MEL-28,> 100 µM (inactive)
same,GI50,HOP-62,> 100 µM (inactive)
same,GI50,CAKI-1,> 100 µM (inactive)
same,GI50,OVCAR-8,> 100 µM (inactive)
same,GI50,MCF7,> 100 µM (inactive)
same,GI50,MDA-MB-435,> 100 µM (inactive)
same,GI50,CCRF-CEM,> 100 µM (inactive)
same,GI50,SK-MEL-5,> 100 µM (inactive)
same,GI50,M14,> 100 µM (inactive)
same,GI50,K562,> 100 µM (inactive)
same,GI50,KM12,> 100 µM (inactive)
same,GI50,SF-268,> 100 µM (inactive)
same,GI50,NCI-H460,> 100 µM (inactive)
same,GI50,SN12C,> 100 µM (inactive)
same,GI50,HCC 2998,> 100 µM (inactive)
same,GI50,EKVX,> 100 µM (inactive)
same,GI50,NCI-H226,> 100 µM (inactive)
same,GI50,COLO 205,> 100 µM (inactive)
same,GI50,ACHN,> 100 µM (inactive)
same,GI50,UO-31,> 100 µM (inactive)
same,GI50,SNB-75,> 100 µM (inactive)
same,GI50,UACC-62,> 100 µM (inactive)
same,GI50,A498,53.6 µM (inactive)
same,GI50,T47D,> 100 µM (inactive)
same,GI50,DU-145,> 100 µM (inactive)
same,GI50,PC-3,> 100 µM (inactive)
same,GI50,OVCAR-3,> 100 µM (inactive)
same,GI50,U-251,> 100 µM (inactive)
same,GI50,SW-620,> 100 µM (inactive)
same,GI50,HL-60,> 100 µM (inactive)
same,GI50,MDA-N,> 100 µM (inactive)
same,GI50,HT-29,> 100 µM (inactive)
same,GI50,IGROV-1,> 100 µM (inactive)
same,GI50,A549,> 100 µM (inactive)
same,GI50,Malme-3M,> 100 µM (inactive)
same,GI50,RPMI-8226,> 100 µM (inactive)
same,GI50,NCI-H522,> 100 µM (inactive)
same,GI50,SK-MEL-2,> 100 µM (inactive)
same,GI50,NCI/ADR-RES,> 100 µM (inactive)
same,GI50,HCT-116,> 100 µM (inactive)
same,GI50,MOLT-4,> 100 µM (inactive)
same,GI50,NCI-H23,> 100 µM (inactive)
same,GI50,MDA-MB-231,> 100 µM (inactive)
same,GI50,SR,> 100 µM (inactive)
same,GI50,HCT-15,> 100 µM
same,GI50,786-0,> 100 µM (inactive)
O=C(O)C1C2CCC(C2)C1c1ccccc1 (stereo not given),GI50,UACC-257,> 100 µM (inactive)
same,GI50,OVCAR-5,> 100 µM (inactive)
same,GI50,TK-10,> 100 µM (inactive)
same,GI50,SNB-19,> 100 µM (inactive)
same,GI50,SK-OV-3,> 100 µM (inactive)
same,GI50,RXF 393,> 100 µM (inactive)
same,GI50,SF-539,> 100 µM (inactive)
same,GI50,HOP-92,> 100 µM (inactive)
same,GI50,Hs-578T,> 100 µM (inactive)
same,GI50,SF-295,> 100 µM (inactive)
same,GI50,SK-MEL-28,> 100 µM (inactive)
same,GI50,HOP-62,> 100 µM (inactive)
same,GI50,CAKI-1,> 100 µM (inactive)
same,GI50,OVCAR-8,> 100 µM (inactive)
same,GI50,MCF7,> 100 µM (inactive)
same,GI50,MDA-MB-435,> 100 µM (inactive)
same,GI50,CCRF-CEM,> 100 µM (inactive)
same,GI50,SK-MEL-5,> 100 µM (inactive)
same,GI50,M14,> 100 µM (inactive)
same,GI50,K562,> 100 µM (inactive)
same,GI50,KM12,> 100 µM (inactive)
same,GI50,SF-268,> 100 µM (inactive)
same,GI50,NCI-H460,> 100 µM (inactive)
same,GI50,SN12C,> 100 µM (inactive)
same,GI50,HCC 2998,> 100 µM (inactive)
same,GI50,EKVX,> 100 µM (inactive)
same,GI50,NCI-H226,> 100 µM (inactive)
same,GI50,COLO 205,> 100 µM (inactive)
same,GI50,ACHN,> 100 µM (inactive)
same,GI50,UO-31,> 100 µM (inactive)
same,GI50,SNB-75,> 100 µM (inactive)
same,GI50,UACC-62,> 100 µM (inactive)
same,GI50,A498,> 100 µM (inactive)
same,GI50,T47D,> 100 µM (inactive)
same,GI50,DU-145,> 100 µM (inactive)
same,GI50,LOX IMVI,> 100 µM (inactive)
same,GI50,PC-3,> 100 µM (inactive)
same,GI50,OVCAR-3,> 100 µM (inactive)
same,GI50,U-251,> 100 µM (inactive)
same,GI50,SW-620,> 100 µM (inactive)
same,GI50,HL-60,> 100 µM (inactive)
same,GI50,MDA-N,> 100 µM (inactive)
same,GI50,HT-29,> 100 µM (inactive)
same,GI50,A549,> 100 µM (inactive)
same,GI50,Malme-3M,> 100 µM (inactive)
same,GI50,RPMI-8226,> 100 µM (inactive)
same,GI50,NCI-H522,> 100 µM (inactive)
same,GI50,SK-MEL-2,55.5 µM (inactive)
same,GI50,NCI/ADR-RES,> 100 µM (inactive)
same,GI50,HCT-116,> 100 µM (inactive)
same,GI50,MOLT-4,> 100 µM (inactive)
same,GI50,NCI-H23,> 100 µM (inactive)
same,GI50,MDA-MB-231,> 100 µM (inactive)
same,GI50,SR,> 100 µM (inactive)
same,GI50,HCT-15,> 100 µM
same,GI50,786-0,> 100 µM (inactive)
